Reference: article PMC3951999 (Cancer cell, 2011)
Like-named read-outs stand apart in the source and are kept apart here. Values belong to the compound of their own block, whether it stands above or below them.

How the values were obtained:
BRAF binding to CRAF = BRAF binding to CRAF with PLX4720; format: cell-based; settings: Fig S3C; cells not given
K562 cells [1] = test: Apoptosis; format: cell-based, human; settings: PD184352 1μM, 4 days
K562R cells [2] = test: Apoptosis; format: cell-based, human; settings: PD184352 1μM, 4 days
[3] = test system: BCR-ABL^T315I Ba/F3 allografts; test: Tumor allograft growth, BCR-ABL^T315I Ba/F3 cells in nude mice; format: in vivo; settings: BCR-ABL^T315I tumors; 25 mg/kg, oral gavage daily
BCR-ABL Ba/F3 cells [4] = test: Cell proliferation, BCR-ABL Ba/F3 cells; settings: PD184352 2μM, imatinib 3μM, nilotinib 1μM, 4 days
BV173 cells [5] = test: Cell proliferation and apoptosis; settings: PD184352 0.2μM, nilotinib 0.1μM, 6 days
BV173R cells = test: Cell proliferation and apoptosis; settings: for cell death (apoptotic sub-G1 cells): 72 hr, absence of PD184352
[6] = test system: CD34+ hematopoietic cells from healthy individuals; test: Cell proliferation; settings: nilotinib 1μM, PD184352 0.3μM, 96 hr
BCR-ABL Ba/F3 cells [7] = test: Apoptosis; settings: 4 days
[8] = test system: BCR-ABL^G250E/T315I, BCR-ABL^E255K/T315I and BCR-ABL^E255V/T315I Ba/F3 cells; test: Cell proliferation, Ba/F3 cells expressing compound BCR-ABL mutants; settings: Ba/F3 cells with compound BCR-ABL mutants; PD184352 2μM, nilotinib 1μM, 4 days
[9] = test system: BCR-ABL^T315I Ba/F3 cells; test: Apoptosis; settings: 4 days
[10] = test system: BCR-ABL^T315I expressing mononuclear cells from imatinib-resistant CML patients; test: Cell proliferation; settings: primary BCR-ABL^T315I cells; nilotinib 1μM, PD184352 0.3μM, 96 hr
[11] = test system: SW620 (KRAS^G12V), Panc1 (KRAS^G12D) and H460 (KRAS^Q61H) cells; test: Western blot for MEK and ERK activation in KRAS mutant cells; format: cell-based, human; settings: imatinib 10μM, nilotinib 1μM, dasatinib 5μM
BV173 cells [12] = test: Western blots of CRAF immunoprecipitates and lysates, BV173 cells; format: cell-based, human
K562 cells [13] = test: Western blots of CRAF immunoprecipitates and lysates, K562 cells; format: cell-based, human; settings: for BRAF binding to CRAF: imatinib 10μM, nilotinib 1μM, dasatinib 5μM
[14] = test system: K562 cells expressing HRAS^G12V; format: cell-based, human; settings: for BRAF binding to CRAF: imatinib 10μM, nilotinib 1μM, dasatinib 5μM; for MEK and ERK phosphorylation: pathway already saturated
D04 cells (NRAS^Q61L) = settings: western blot
[15] = patient plasma; ref Weisberg et al., 2007; Demetri et al., 2002; cited from earlier work
CRAF [16] = target: T1, CRAF (Homo sapiens, UniProt P04049); settings: D04 cells; imatinib 10μM, nilotinib 1μM, dasatinib 5μM, 3 hr
CRAF [17] = target: T1, CRAF; test: RAF kinase assay, myc-tagged CRAF captured from COS cells; settings: imatinib 10μM, nilotinib 1μM, dasatinib 5μM
CRAF^T421N = CRAF^T421N (Homo sapiens, UniProt P04049, T421N); test: RAF kinase assay, myc-tagged CRAF^T421N captured from COS cells; settings: gatekeeper mutant; imatinib 10μM, nilotinib 1μM, dasatinib 5μM
BCR-ABL Ba/F3 cells [18] = test: Western blots of CRAF immunoprecipitates and lysates, BCR-ABL Ba/F3 cells
[19] = test system: BCR-ABL^T315I Ba/F3 cells; test: Western blots of CRAF immunoprecipitates and lysates, BCR-ABL^T315I Ba/F3 cells
BRAF = BRAF (Homo sapiens, UniProt P15056); test: RAF kinase assay, myc-tagged BRAF captured from COS cells; settings: various GNF-2 concentrations, 30 min
Sequence of BRAF (P15056 whole entry): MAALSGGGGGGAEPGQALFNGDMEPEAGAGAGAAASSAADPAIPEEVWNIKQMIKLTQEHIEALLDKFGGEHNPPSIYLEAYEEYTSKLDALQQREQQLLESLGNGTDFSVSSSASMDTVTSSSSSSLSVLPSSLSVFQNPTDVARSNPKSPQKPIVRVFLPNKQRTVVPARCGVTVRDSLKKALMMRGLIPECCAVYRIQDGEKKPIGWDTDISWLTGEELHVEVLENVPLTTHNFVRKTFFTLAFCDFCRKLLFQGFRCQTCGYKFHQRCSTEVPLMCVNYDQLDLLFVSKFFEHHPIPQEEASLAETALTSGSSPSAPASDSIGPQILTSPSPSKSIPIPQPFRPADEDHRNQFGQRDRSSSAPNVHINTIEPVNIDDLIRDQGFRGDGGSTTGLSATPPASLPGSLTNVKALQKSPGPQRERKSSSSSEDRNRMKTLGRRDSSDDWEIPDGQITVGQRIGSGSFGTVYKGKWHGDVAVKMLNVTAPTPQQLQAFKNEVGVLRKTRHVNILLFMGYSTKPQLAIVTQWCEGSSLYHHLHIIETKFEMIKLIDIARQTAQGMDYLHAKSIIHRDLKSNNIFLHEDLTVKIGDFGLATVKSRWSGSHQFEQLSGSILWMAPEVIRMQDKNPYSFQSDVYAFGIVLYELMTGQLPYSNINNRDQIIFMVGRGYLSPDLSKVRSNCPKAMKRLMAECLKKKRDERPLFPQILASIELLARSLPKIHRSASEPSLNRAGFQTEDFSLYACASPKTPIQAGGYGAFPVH

RAS [20] = test: RAS-GTP capture assay, BCR-ABL Ba/F3 cells; format: cell-based, murine; settings: nilotinib 1μM, 60 min
[21] = test system: Ba/F3 cells expressing BCR-ABL^G250E/T315I, BCR-ABL^E255K/T315I and BCR-ABL^E255V/T315I; test: Western blots, Ba/F3 cells expressing compound BCR-ABL mutants; format: cell-based, murine; settings: Ba/F3 cells with compound BCR-ABL mutants
RAS [22] = test: RAS activity in K562 cells; format: cell-based, human
K562R cells [23] = test: Western blots, K562R cells; format: cell-based, human
RAS [24] = test: RAS activity in K562R cells; format: cell-based, human
BCR-ABL Ba/F3 allografts = test: Tumor allograft growth, BCR-ABL Ba/F3 cells in nude mice; format: in vivo; settings: BCR-ABL tumors; 25 mg/kg, oral gavage daily
[25] = test system: BV173R cells (BCR-ABL^T315I)
[26] = test system: mononuclear cells harbouring native BCR-ABL from newly diagnosed CML patients; settings: primary BCR-ABL cells; nilotinib 1μM, PD184352 0.3μM, 96 hr
[27] = test system: BCR-ABL^T315I Ba/F3 cells; test: Cell proliferation, BCR-ABL^T315I Ba/F3 cells
CRAF [28] = target: T2, CRAF (Mus musculus, UniProt Q99N57); test: Endogenous CRAF kinase activity in BCR-ABL Ba/F3 cells
T2 sequence (Q99N57 whole entry): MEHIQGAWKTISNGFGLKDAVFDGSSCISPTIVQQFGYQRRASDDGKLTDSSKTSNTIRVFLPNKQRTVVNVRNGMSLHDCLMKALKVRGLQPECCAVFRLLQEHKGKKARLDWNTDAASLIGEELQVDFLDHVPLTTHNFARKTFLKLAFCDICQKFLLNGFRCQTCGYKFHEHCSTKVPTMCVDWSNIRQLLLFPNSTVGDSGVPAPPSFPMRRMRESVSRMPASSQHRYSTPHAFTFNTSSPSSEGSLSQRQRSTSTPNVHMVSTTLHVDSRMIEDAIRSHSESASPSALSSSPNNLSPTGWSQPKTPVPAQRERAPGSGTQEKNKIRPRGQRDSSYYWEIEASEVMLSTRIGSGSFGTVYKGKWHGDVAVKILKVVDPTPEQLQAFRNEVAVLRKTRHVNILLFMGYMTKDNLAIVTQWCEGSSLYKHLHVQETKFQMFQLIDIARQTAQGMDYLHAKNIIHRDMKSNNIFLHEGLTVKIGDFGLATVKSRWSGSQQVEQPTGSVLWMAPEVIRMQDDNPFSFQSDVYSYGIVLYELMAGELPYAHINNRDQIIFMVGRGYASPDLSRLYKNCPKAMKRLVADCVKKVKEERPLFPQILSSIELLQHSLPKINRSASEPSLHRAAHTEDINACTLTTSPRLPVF

CRAF [29] = target: T2, CRAF; settings: BCR-ABL^T315I Ba/F3 cells

SMILES: CCCS(=O)(=O)Nc1ccc(F)c(C(=O)c2c[nH]c3ncc(Cl)cc23)c1F [PLX4720]
BRAF binding to CRAF (BRAF binding to CRAF): did not induce strong binding of BRAF to CRAF

SMILES: O=C(NOCC1CC1)c1ccc(F)c(F)c1Nc1ccc(I)cc1Cl [PD184352]
apoptosis / cell death (K562 cells [1]): did not kill these cells
growth / cell death (K562R cells [2]): did not affect the growth
tumor growth [3]: insensitive
cell growth (BCR-ABL Ba/F3 cells [4]): did not inhibit the growth
cell proliferation and apoptosis (BV173 cells [5]): did not inhibit cell proliferation or induce apoptosis
cell proliferation and apoptosis (BV173R cells; PD184352 0.2μM, nilotinib 0.1μM, 6 days): did not inhibit cell proliferation or induce apoptosis
cell proliferation [6]: resistant
apoptosis (BCR-ABL Ba/F3 cells [7]): did not induce apoptosis
cell proliferation [8]: did not affect proliferation
apoptosis [9]: did not induce apoptosis
cell growth [10]: did not affect the growth

SMILES: Cc1nc(Nc2ncc(C(=O)Nc3c(C)cccc3Cl)s2)cc(N2CCN(CCO)CC2)n1 [dasatinib]
MEK and ERK activation [11]: activated MEK and ERK
BCR-ABL and CRKL phosphorylation (BV173 cells [12]): inhibited BCR-ABL and CRKL phosphorylation
BRAF binding to CRAF (BV173 cells [12]): did not induce BRAF binding to CRAF
MEK and ERK activity (BV173 cells [12]): inhibited MEK and ERK
BRAF binding to CRAF (K562 cells [13]): did not induce BRAF binding to CRAF
BRAF binding to CRAF [14]: induced BRAF binding to CRAF
MEK and ERK phosphorylation [14]: did not increase MEK and ERK phosphorylation
lowest concentration stimulating robust MEK and ERK phosphorylation (D04 cells (NRAS^Q61L)): 100 nM
peak plasma/serum concentration [15]: ~90 nM
endogenous CRAF kinase activity (CRAF [16]): activated
CRAF kinase activity in vitro (CRAF [17]): inhibited
CRAF^T421N kinase activity in vitro (CRAF^T421N): resistant

SMILES: CN(C)CCOc1ccc(-c2nc(-c3ccncc3)c(-c3ccc4c(c3)CC/C4=N\O)[nH]2)cc1 [SB590885]
BCR-ABL (Y245) and CRKL (Y207) phosphorylation (BCR-ABL Ba/F3 cells [18]; BCR-ABL Ba/F3 cells): Neither agent inhibited BCR-ABL or CRKL phosphorylation
BRAF binding to CRAF (BCR-ABL Ba/F3 cells [18]; BCR-ABL Ba/F3 cells): stimulated BRAF binding to CRAF
CRAF (S338) phosphorylation, MEK and ERK activity/phosphorylation (BCR-ABL Ba/F3 cells [18]; BCR-ABL Ba/F3 cells): stimulated

SMILES: Cn1c(Nc2ccc(C(F)(F)F)cc2)nc2cc(Oc3ccnc(-c4ncc(C(F)(F)F)[nH]4)c3)ccc21 [RAF265]
cell death (apoptotic sub-G1 cells) (BV173R cells): induced cell death
BCR-ABL and CRKL phosphorylation ([19]; BCR-ABL^T315I Ba/F3 cells): did not inhibit BCR-ABL or CRKL phosphorylation
BRAF binding to CRAF ([19]; BCR-ABL^T315I Ba/F3 cells): induced BRAF binding to CRAF

SMILES: Oc1cc(-c2nc(-c3ccccc3)[nH]c2-c2ccncc2)ccc1Cl [L779450]
BCR-ABL (Y245) and CRKL (Y207) phosphorylation (BCR-ABL Ba/F3 cells [18]; BCR-ABL Ba/F3 cells): Neither agent inhibited BCR-ABL or CRKL phosphorylation
BRAF binding to CRAF (BCR-ABL Ba/F3 cells [18]; BCR-ABL Ba/F3 cells): stimulated BRAF binding to CRAF
CRAF (S338) phosphorylation, MEK and ERK activity/phosphorylation (BCR-ABL Ba/F3 cells [18]; BCR-ABL Ba/F3 cells): stimulated

BRAF activity in vitro (BRAF): did not inhibit BRAF activity in vitro
SMILES: NC(=O)c1cccc(-c2cc(Nc3ccc(OC(F)(F)F)cc3)ncn2)c1 [GNF-2]
BCR-ABL (Y245) and CRKL (Y207) phosphorylation (BCR-ABL Ba/F3 cells [18]; BCR-ABL Ba/F3 cells): blocked
CRAF (S338) phosphorylation, MEK and ERK activity/phosphorylation (BCR-ABL Ba/F3 cells [18]; BCR-ABL Ba/F3 cells): blocked
BCR-ABL and CRKL phosphorylation ([19]; BCR-ABL^T315I Ba/F3 cells): did not block BCR-ABL or CRKL phosphorylation
BRAF binding to CRAF ([19]; BCR-ABL^T315I Ba/F3 cells): did not induce BRAF binding to CRAF
CRAF (S338) phosphorylation, MEK and ERK activity/phosphorylation ([19]; BCR-ABL^T315I Ba/F3 cells): did not increase CRAF, MEK or ERK phosphorylation

SMILES: Cc1cn(-c2cc(NC(=O)c3ccc(C)c(Nc4nccc(-c5cccnc5)n4)c3)cc(C(F)(F)F)c2)cn1 [nilotinib]
MEK and ERK activation [11]: activated MEK and ERK
BCR-ABL and CRKL phosphorylation (BV173 cells [12]): inhibited BCR-ABL and CRKL phosphorylation
BRAF binding to CRAF (BV173 cells [12]): did not induce BRAF binding to CRAF
MEK and ERK activity (BV173 cells [12]): inhibited MEK and ERK
RAS activity (RAS-GTP) (RAS [20]): blocked RAS activity
BCR-ABL and CRKL phosphorylation (K562 cells [13]): inhibited BCR-ABL and CRKL phosphorylation
CRAF, MEK and ERK phosphorylation (K562 cells [13]): inhibited CRAF, MEK and ERK phosphorylation
BRAF binding to CRAF (K562 cells [13]): did not induce BRAF binding to CRAF
BRAF binding to CRAF [14]: induced BRAF binding to CRAF
MEK and ERK phosphorylation [14]: did not increase MEK and ERK phosphorylation
BCR-ABL and CRKL phosphorylation [21]: did not inhibit BCR-ABL or CRKL phosphorylation
BRAF binding to CRAF, MEK and ERK activation [21]: induced BRAF binding to CRAF as well as MEK and ERK activation
RAS activity (RAS [22]): suppressed RAS activity
BCR-ABL and CRKL phosphorylation (K562R cells [23]): blocked BCR-ABL and CRKL phosphorylation
CRAF, MEK and ERK phosphorylation (K562R cells [23]): did not block CRAF, MEK or ERK phosphorylation
RAS activity (RAS [24]): did not inhibit RAS
apoptosis / cell death (K562 cells [1]): induced apoptosis
growth / cell death (K562R cells [2]): did not affect the growth
tumor growth (BCR-ABL Ba/F3 allografts): strongly suppressed
tumor growth [3]: insensitive
lowest concentration stimulating robust MEK and ERK phosphorylation (D04 cells (NRAS^Q61L)): 100 nM
BRAF binding to CRAF [25]: induced BRAF binding to CRAF
MEK and ERK activity [25]: activated MEK and ERK
cell proliferation [26]: inhibited the proliferation
peak plasma/serum concentration [15]: ~4000 nM
cell growth (BCR-ABL Ba/F3 cells [4]): sensitive
endogenous CRAF kinase activity (CRAF [16]): activated
cell growth [27]: resistant
CRAF activity (CRAF [28]): blocked CRAF activity
cell proliferation and apoptosis (BV173 cells [5]): inhibited cell proliferation and induced apoptosis
CRAF kinase activity in vitro (CRAF [17]): inhibited
CRAF activity (CRAF [29]): activated CRAF
cell proliferation [6]: resistant
CRAF^T421N kinase activity in vitro (CRAF^T421N): resistant
apoptosis (BCR-ABL Ba/F3 cells [7]): induced apoptosis
cell proliferation [8]: did not affect proliferation
BRAF binding to CRAF (BCR-ABL Ba/F3 cells [18]): did not affect BRAF binding to CRAF
BCR-ABL (Y245) and CRKL (Y207) phosphorylation (BCR-ABL Ba/F3 cells [18]; BCR-ABL Ba/F3 cells): blocked
cell growth [10]: did not affect the growth
BRAF binding to CRAF [19]: enhanced BRAF binding to CRAF
CRAF (S338) phosphorylation, MEK and ERK activity/phosphorylation [19]: induced CRAF phosphorylation on S338 (Fig 3C) and activated CRAF (Fig 3D), MEK and ERK
BCR-ABL and CRKL phosphorylation ([19]; BCR-ABL^T315I Ba/F3 cells): did not inhibit BCR-ABL or CRKL phosphorylation

SMILES: CNC(=O)c1cc(Oc2ccc(NC(=O)Nc3ccc(Cl)c(C(F)(F)F)c3)cc2)ccn1 [sorafenib]
cell death (apoptotic sub-G1 cells) (BV173R cells): induced cell death
